Measured values as given in patent US20250205204A1, “Transcription Factor Brn2 Inhibitory Compounds for Use as Therapeutics” (The University of British Columbia, priority 2021, published 2025).
Like-named read-outs stand apart in the source and are kept apart here.

Assays:
42D^ENZR cells = assay: Cell proliferation, BRN2 expressing 42D cells (crystal violet); assay type: cell-based; conditions: for Growth Specificity: 42D (express BRN2) versus 16D (no BRN2) cells, result in words
Protocol: Step 3: Cell Proliferation
Plate 42DE^NZR (˜7000 cells per well) and 16D^CRPC (˜5000 cells per well) cells in 96 well plate with a volume of 100 μL per well. • 2. Next day 1 mL aliquots of media are combined with 3× the desired concentration of compounds. The aliquots are vortexed and 50 μL of each 3× concentration is added to the 100 μL of media in each well to give the ix desired concentration.
The following are the desired concentrations:
Approximately 72 hours later, 17 μL of 10% Glutaraldehyde is added to each well and plates are placed on a shaker for 20-30 minutes. • 4. Media is washed off the fixed cells by slow submersion in a container of water. Then the water is removed by tapping the plate upside down. • 5. 75 μL of Crystal Violet™ solution is added into the 96 well plates and placed on a shaker for ˜30 minutes. • 6. Media is washed off the fixed cells by repeated slow submersion in a container of water and the plates are allowed to dry over-night. • 7. Next day, 75 μL of Sorensen Solution is accurately pipetted into each well. The plates placed on a shaker for ˜30 minutes. • 8. Absorbance is measured in the plate at 590 nm.
There is a distinction in TABLES 1 and 2 difference between “Active” and “Specific” or “Specificity”.

[1] = Metabolic stability in liver microsomes (MLM); assay type: in vitro ADME, mice; conditions: 0.25 mg/mL protein; for half-life at 1 μM: mouse, liver microsomes, pH 7.4, 1 μM compound, read-out: T1/2 in mins (MLM); for Met Stab % (60 mins) MLM: percent remaining at 60 min, 1 μM compound, 1 mM NADPH
Protocol: Preparation of Potassium Phosphate Buffer, 50 mM (pH 7.4)
Potassium phosphate buffer (Kphos) was prepared by adding 0.647 g potassium phosphate monobasic (KH2PO4) and 3.527 g potassium phosphate dibasic (KH2PO4) to 400 mL of Milli-Q™ water. pH of the buffer was adjusted to 7.4 and volume was made up to 500 mL.
Preparation of Microsomes
Stock solutions of BRN2 inhibitors were prepared in DMSO at a concentration of 1 mM
Preparation of NADPH Solution
• Total Incubation volume: 100 μL • Compound concentration: 1 μM • Protein Concentration: 0.25 mg/mL • NADPH: 1 mM • Final DMSO contain: 0.1% • Number of replicates: 2 • Time points: 0, 5, 15, 30 and 60 min
From the above mix, 70 μL was added to individual wells of 96 well reaction plates and pre-incubated in a 37° C. water bath for 5 min. […] Reactions without NADPH and buffer controls (minus NADPH) at 0 min and 60 min were also incubated to rule out non-NADPH metabolism or chemical instability in the incubation buffer. All reactions were terminated using 100 μL of ice-cold acetonitrile containing internal standard at 0, 5, 15, 30 and 60 min.
Samples were monitored for parent compounds disappearance in MRM mode using LC-MS/MS.
The percent remaining of test compounds and positive control in each sample was determined by considering peak area ratio in the 0 minute sample as 100%. The Half-life of compounds in microsomes is calculated by formula: […]
In vitro intrinsic clearance (CL'int) (units in mL/min/kg) was calculated using the formula.
[formula] • For liver microsomes, scaling factor used was 45 mg microsomal protein per gm liver. • * Indicates liver weight (gm) which varies species wise. For mice the liver weights are 90 gm.

[2] = read-out: IC50 (effective on both 42D and 16D cells)

SMILES	Growth Specificity (42D^ENZR cells; about 72 hours)	half-life at 1 μM [1]	Met Stab % (60 mins) MLM [1]	IC50 (42D^ENZR cells; [2])	IC50 (42D^ENZR cells; 42D cells, proliferation, about 72 hours, read-out: 42D IC50)
CN(/N=C1\CCc2ccccc21)c1nc2ccccc2s1 [7-30]	Non-specific. Effective on both 42D and 16D cells	11 min	1%		
N#Cc1ccc2nc(N/N=C3\CCc4ccccc43)sc2c1 [7-33]	Non-specific. Effective on both 42D and 16D cells	47 min	35%		
Clc1cccc2nc(N/N=C3\CCc4ccccc43)sc12 [7-34]	Non-specific. Effective on both 42D or 16D cells	6 min	0%		
FC1(F)Cc2ccccc2/C1=N/Nc1nc2ccccc2s1 [7-35]	Not effective on 42D or 16D cells	12 min	1%		
c1ccc2c(c1)Cc1nn(-c3nc4ccccc4s3)cc1-2 [7-37]	Not effective on 42D or 16D cells	16 min	7%		
Clc1ccc2c(c1)/C(=N\Nc1nc3ccccc3s1)CC2 [7-38]	Not effective on 42D or 16D cells	8 min	1%		
Fc1cc(F)c2nc(N/N=C3\CCc4ccccc43)sc2c1 [7-39]	Not effective on 42D or 16D cells	17 min	7%		
O=C1/C(=N\Nc2nc3ccccc3s2)CC2C=CC=CC12 (stereo not shown) [7-41]	Not effective on 42D or 16D cells	33 min	28%		
c1ccc2c(c1)CCC2c1cnn(-c2nc3ccccc3s2)c1 (stereo not shown) [7-43]	Not effective on 42D or 16D cells	10 min	1%		
c1ccc2c(c1)CCC2c1ccc(-c2nc3ccccc3s2)o1 (stereo not shown) [7-44]	Not effective on 42D or 16D cells	10 min	1%		
Fc1cc(Br)c2c(c1)/C(=N\Nc1ccc3ccccc3n1)CC2 [7-45]	Not effective on 42D or 16D cells	21 min	14%		
Cc1ccc2nc(N/N=C3/CCc4ccccc43)sc2c1 [7-46]	Not effective on 42D or 16D cells	13 min	5%		
Fc1ccc2nc(N/N=C3/CCc4ccccc43)sc2c1 [7-47]	Not effective on 42D or 16D cells	7 min	0%		
c1ccc2c(c1)CC/C2=N/Nc1ccc2ccccc2c1 [7-48]	Not effective on 42D or 16D cells	22 min	14%		
c1ccc2c(c1)CN(Nc1nc3ccccc3s1)C2 [7-49]	Not effective on 42D or 16D cells	14 min	1%		
O=C(Nc1nc2ccccc2s1)C1CCc2ccccc21 (stereo not shown) [7-51]	Not effective on 42D or 16D cells	12 min	1%		

SMILES	Growth Specificity (42D^ENZR cells; about 72 hours)	half-life at 1 μM [1]	Met Stab % (60 mins) MLM [1]	IC50 (42D^ENZR cells; [2])	IC50 (42D^ENZR cells; 42D cells, proliferation, about 72 hours, read-out: 42D IC50)
CC1(C)C/C(=N/Nc2nc3ccccc3s2)c2ccccc21 [7-53]	effective on both 42D and 16D cells	13 min	4%	10 µM	
C/C(=N\Nc1nc2ccccc2s1)c1ccccc1C [7-54]	Not effective on 42D or 16D cells		0%		
Fc1ccc2c(c1)/C(=N\Nc1nc3ccccc3s1)CC2 [7-56]	effective on both 42D and 16D cells	8 min	0%	10 µM	
Fc1cccc2c1/C(=N\Nc1nc3ccccc3s1)CC2 [7-58]	effective on both 42D and 16D cells	7 min	0%	10 µM	
c1ccc(N/N=C2\CCc3ccccc32)nc1 [7-60]	Not effective on 42D or 16D cells	8 min	0%		
CC1(C)Cc2ccccc2/C1=N\Nc1nc2ccccc2s1 [7-61]	effective on both 42D and 16D cells	10 min	1%	10 µM	
Cc1nc(N/N=C2/CCc3ccccc32)sc1C [7-63]	Not effective on 42D or 16D cells	11 min	1%		
c1ccc2c(c1)CC/C2=N/Nc1nccs1 [7-64]	Not effective on 42D or 16D cells	8 min	0%		
CC1(C)/C(=N/Nc2nc3ccccc3s2)C(=O)c2ccccc21 [7-67, (Z)-2-(2-(benzo[d]thiazol-2-yl)hydrazineylidene)-3,3-dimethyl-2,3-dihydro-1H-inden-1-one]	not specific	34 min	28%		
COC(=O)C1/C(=N/Nc2nc3ccccc3s2)Cc2ccccc21 (stereo not shown) [7-68, methyl (E)-2-(2-(benzo[d]thiazol-2-yl)hydrazineylidene)-2,3-dihydro-1H-indene-1-carboxylate]	not specific	< 5 min	0%		
O=C1c2ccccc2CC1/C=N/Nc1nc2ccccc2s1 (stereo not shown) [7-69, (E)-2-((2-(benzo[d]thiazol-2-yl)hydrazineylidene)methyl)-2,3-dihydro-1H-inden-1-one]	not specific	44 min	33%		
O=C1/C(=N\Nc2nc3ccccc3[nH]2)Cc2ccccc21 [7-76, (Z)-2-(2-(1H-benzo[d]imidazol-2-yl)hydrazineylidene)-2,3-dihydro-1H-inden-1-one]	Not effective on 42D or 16D cells	10 min	1%		
O=C1/C(=N\Nc2nc3ccccc3o2)Cc2ccccc21 [7-77, (Z)-2-(2-(benzo[d]oxazol-2-yl)hydrazineylidene)-2,3-dihydro-1H-inden-1-one]	Not specific	16 min	8%		
O=C1/C(=N\Nc2nc(-c3ccccc3)cs2)Cc2ccccc21 [7-78]	Not effective on 42D or 16D cells	32 min	32%		
Cn1c(N/N=C2/Cc3ccccc3C2=O)nc2ccccc21 [7-79]	Specific but weak	6 min	2%		> 15 µM
